Experimental findings from ChEMBL document CHEMBL4321799, “Development of the First Low Nanomolar Liver Receptor Homolog-1 Agonist through Structure-guided Design” (J Med Chem, 2019) are described below.

The source made the active and inactive calls. The rule behind the calls is not given here.

A word on the ΔTm: it is the shift of the melting midpoint relative to a reference.

The target in test [1] is Steroidogenic factor 1 (Homo sapiens) (UniProt Q13285). Kind of test: Agonist activity at recombinant full length SF1 (unknown origin) transfected in human HeLa cells incubated for 24 hrs by renilla luciferase reporter gene assay. The format is cell-based.
Sequence of Steroidogenic factor 1 (Homo sapiens) (Q13285 whole entry): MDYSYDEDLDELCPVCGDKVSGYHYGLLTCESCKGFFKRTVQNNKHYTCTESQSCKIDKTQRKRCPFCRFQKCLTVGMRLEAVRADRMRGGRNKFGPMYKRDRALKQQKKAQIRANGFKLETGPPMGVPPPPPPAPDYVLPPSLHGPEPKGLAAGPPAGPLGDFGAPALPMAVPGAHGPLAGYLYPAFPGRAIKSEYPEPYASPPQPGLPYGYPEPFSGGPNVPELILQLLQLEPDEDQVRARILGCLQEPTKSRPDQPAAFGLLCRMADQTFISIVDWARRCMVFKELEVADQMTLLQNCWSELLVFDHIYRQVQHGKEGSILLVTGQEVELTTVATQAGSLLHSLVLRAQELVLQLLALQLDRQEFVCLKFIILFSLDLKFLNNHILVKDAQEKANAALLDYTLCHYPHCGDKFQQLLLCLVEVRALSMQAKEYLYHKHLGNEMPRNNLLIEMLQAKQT
The target in test [2] is Nuclear receptor subfamily 5 group A member 2 (Homo sapiens) (UniProt O00482).
Sequence of Nuclear receptor subfamily 5 group A member 2 (Homo sapiens) (O00482 whole entry): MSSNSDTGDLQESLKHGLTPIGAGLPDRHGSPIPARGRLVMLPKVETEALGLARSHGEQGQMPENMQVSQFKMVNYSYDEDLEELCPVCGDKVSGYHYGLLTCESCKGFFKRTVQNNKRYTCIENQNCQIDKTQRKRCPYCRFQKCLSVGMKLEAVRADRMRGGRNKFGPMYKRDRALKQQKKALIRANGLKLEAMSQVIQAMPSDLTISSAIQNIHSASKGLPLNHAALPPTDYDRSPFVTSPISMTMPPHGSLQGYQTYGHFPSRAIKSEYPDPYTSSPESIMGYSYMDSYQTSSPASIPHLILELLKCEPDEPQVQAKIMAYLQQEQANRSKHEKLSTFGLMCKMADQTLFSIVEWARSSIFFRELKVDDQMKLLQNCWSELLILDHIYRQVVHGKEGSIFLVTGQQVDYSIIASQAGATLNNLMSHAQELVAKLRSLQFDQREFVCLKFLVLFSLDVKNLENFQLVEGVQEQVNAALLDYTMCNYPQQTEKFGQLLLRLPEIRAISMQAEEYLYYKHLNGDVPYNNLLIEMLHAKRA
Test [3] deals with Nuclear receptor subfamily 5 group A member 2 (Homo sapiens), O00482 [T352V]. Kind of test: Activation of human full length LRH1 T352V mutant transfected in human HeLa cells at 10 uM incubated for 24 hrs by renilla luciferase reporter gene assay. The class given is cell-based. Background: In a reporter assay the amount or activity of a reporter protein is the signal.
Sequence of Nuclear receptor subfamily 5 group A member 2 (Homo sapiens), O00482 [T352V] (O00482 whole entry T352V): as the sequence (O00482 whole entry) above, with T352V counted along it
Test [4] relates to Nuclear receptor subfamily 5 group A member 2 (Homo sapiens), O00482 [M345L]. Kind of test: Activation of human full length LRH1 M345L mutant transfected in human HeLa cells at 10 uM incubated for 24 hrs by renilla luciferase reporter gene assay. The class given is cell-based.
Sequence of Nuclear receptor subfamily 5 group A member 2 (Homo sapiens), O00482 [M345L] (O00482 whole entry M345L): as the sequence (O00482 whole entry) above, with M345L counted along it
Test [5] deals with Nuclear receptor subfamily 5 group A member 2 (Homo sapiens), O00482 [H390A]. Kind of test: Activation of human full length LRH1 H390A mutant transfected in human HeLa cells at 10 uM incubated for 24 hrs by renilla luciferase reporter gene assay. The format is cell-based.
Sequence of Nuclear receptor subfamily 5 group A member 2 (Homo sapiens), O00482 [H390A] (O00482 whole entry H390A): as the sequence (O00482 whole entry) above, with H390A counted along it
Test [6] is filed under the species Mus musculus. Kind of test: Effect on Cyp11a1 mRNA expression in LRH1 knock-out mouse enteroids at 1 uM pretreated with TNF-alpha followed incubation with compound for overnight by real-time PCR analysis. The format is functional. For orientation: Quantitative PCR measures a nucleic acid by following its amplification.
The species entered for test [7] is Mus musculus. Kind of test: Effect on Cyp11b1 mRNA expression in LRH1 knock-out mouse enteroids at 1 uM pretreated with TNF-alpha followed incubation with compound for overnight by real-time PCR analysis. The format is functional.

Consider `C=C(c1ccccc1)[C@@]12CC[C@@H](O)[C@@H]1CC(CCCCCC)=C2c1ccccc1`, for which, in test [1], the result was Active.

With `C=C(c1ccccc1)[C@@]12CC[C@H](n3ccnn3)[C@@H]1CC(CCCCCC)=C2c1ccccc1` (racemic), in test [2], the ΔTm was in the range of 3 to 8 °C.

As to `C=C(c1ccccc1)[C@@]12CC[C@H](OS(=O)(=O)NC(N)=O)[C@@H]1CC(CCCCCC)=C2c1ccccc1` (racemic), in test [2], the ΔTm was in the range of 3 to 8 °C.

`C=C(c1ccccc1)[C@@]12CC[C@H](OS(N)(=O)=O)[C@@H]1CC(CCCCCC)=C2c1ccccc1` (racemic): in test [1], the result was Active. For the same compound, the shift in melting temperature (ΔTm) in test [2] fell in the range of 3 to 8 °C.

Take `C=C(c1ccccc1)[C@@]12CC[C@@H](OS(N)(=O)=O)[C@@H]1CC(CCCCCC)=C2c1ccccc1` (racemic): in test [2], the thermal shift (ΔTm) lay in the range of 3 to 8 °C.

With `C=C(c1ccccc1)[C@@]12CC[C@H](NC(C)=O)[C@@H]1CC(CCCCCC)=C2c1ccccc1` (racemic), the outcome in test [1] and in test [5] was inactive. In addition, the outcome in test [3] and in test [4] was Active.

`C=C(c1ccccc1)[C@@]12CC[C@H](NS(N)(=O)=O)[C@@H]1CC(CCCCCC)=C2c1ccccc1` (racemic): in test [1], the result was Active. For the same compound, the outcome in the test filed under Mus musculus [6] and in the test listed under Mus musculus [7] was inactive.
